Series [1] can be described thus: LNP formulability and stability through dialysis, concentration and storage. It counts as physicochemical. As to conditions: for behaviour in dialysis: PEG-less mRNA-LNP 1/structural lipid/cholesterol 27.4/50/22.6, unmodified method; for ability to be formulated in PEG-less mRNA-LNPs: unmodified ethanol mixing method, ionizable lipid/DSPC/chol 27.4/50/22.6, N/P 9 (FIG. 6); for physiochemical characteristics, modified method with 25 mM sodium acetate dilution: 1:2-1:3 volume ratio; for behaviour after dialysis and concentration/storage: PEG-less mRNA-LNP, unmodified method, 27.4/50/22.6; for physiochemical properties/stability, modified method with 1× PBS dilution after T-mixing: all ratios of LNP:PBS tested, after dialysis and after concentration to >0.25 mg/mL and overnight storage; for viability of LNPs, modified method with 25 mM sodium acetate dilution: all ratios of LNP:NaOAc (v:v). The procedure: Unless otherwise specified, the LNPs were prepared by dissolving mRNA or plasmid DNA (pDNA) in 25 mM sodium acetate, pH 4.0, while the lipid components at the mole % specified were dissolved in absolute ethanol. The lipids in ethanol and the nucleic acid cargo in buffer were combined in a 1:3 volume by volume ratio using a t-junction with dual-syringe pump. The solutions were pushed through the t-junction at a combined flow rate of 20 mL/min (5 mL/minute for the lipid-containing syringe, 15 mL/minute for the mRNA-containing syringe). The mixture was subsequently dialyzed overnight against at least ˜100 volumes of 1× phosphate buffered saline (PBS), pH 7.4 using Spectro/Por™ dialysis membranes (molecular weight cut-off 12 000-14 000 Da). The LNPs were concentrated as required with an Amicon Ultra™ 100 000 MWCO (molecular weight cut-off), regenerated cellulose concentrator.
After T-mixing, 1× phosphate buffered saline (PBS) or other buffer as indicated, was added to the formulation mixture in increasing ratios of LNP: 1× buffer prior to dialysis and gently mixed, followed by transfer to dialysis in 1×PBS (or other suitable buffer as indicated) followed by processing as usual.
After the T-mixing (see Materials and Methods above), 1× phosphate buffered saline (PBS) was added to the formulation mixture in increasing volume ratios of LNP: 1× PBS (as indicated in FIGS. 7A-F) prior to dialysis followed by gentle mixing and transfer of the mixture to a dialysis bag in 1×PBS overnight followed by processing as usual. […] Physiochemical characteristics (particle size, PDI and encapsulation %) were measured after dialysis and after dialysis and concentration of the LNPs to >0.25 mg/mL and overnight storage.

Series [2] is described as follows: Encapsulation efficiency (RiboGreen), particle size and PDI (Zetasizer Nano ZS) of LNPs. It is filed as physicochemical. As to conditions: PEG-less mRNA-LNP, unmodified method, 27.4/50/22.6 (FIG. 6). The protocol: Encapsulation efficiency was calculated by determining unencapsulated mRNA content by measuring the fluorescence upon the addition of RiboGreen™ to the mRNA-LNP (Fi) and comparing this value to the total mRNA content that is obtained upon lysis of the LNP by 2% Triton X-100 (Ft): % encapsulation=(Ft−Fi)/Ft×100.
The particle size and polydispersity index (PDI) were characterized using a Zetasizer Nano ZS™.

Where [3] appears, read: buffer-to-LNP ratio as low as 1:1 (v:v).
[4] abbreviates: dilution ratios below 1:1 (v:v).

Each structure is given as a SMILES string.

Regarding `CCCCCCCC/C=C\CCCCCCCC(=O)OC[C@H](COP(=O)([O-])OCC[N+](C)(C)C)OC(=O)CCCCCCC/C=C\CCCCCCCC` [DOPC, dioleoylphosphatidylcholine], in series [1], the behaviour in dialysis entry is reported as “agglomerated in dialysis”.

Regarding `CCCCCCCCCCCOC(=O)CCCCCN(CCO)CCCCCCCC(=O)OC(CCCCCCCC)CCCCCCCC` [Ionizable lipid 21], the “ability to be formulated in PEG-less mRNA-LNPs” value (shortened to “ability to be formulated”) in series [1] was “capable of being formulated”.

On to `CCCCCCCC(=O)OC(CCCCCC)CSCCCCCC(CCCCCSCC(CCCCCC)OC(=O)CCCCCCC)N(C)CCCCO` (stereo not drawn) [Ionizable lipid 15], for which, in series [2], the PDI result is on record as “high” and the encapsulation efficiency entry is “low”. Moreover, in series [1], the “physiochemical characteristics, modified method with 25 mM sodium acetate dilution” value is “ideal physiochemical characteristics”; the “behaviour after dialysis and concentration/storage” value is “agglomerate after dialysis or were not stable after concentration/storage”; the “physiochemical properties/stability, modified method with 1× PBS dilution after T-mixing” value was “agglomerated in dialysis”; the “ability to be formulated” value is listed as “undesirable physiochemical characteristics”. In series [1] (setting [3]), the “stability, modified method with 25 mM sodium acetate dilution” value is given as “stable PEG-less lcLNP compositions”. The “stability, modified method with 25 mM sodium acetate dilution” value in series [1] (setting [4]) was “agglomerated in dialysis”.

Consider `CCCCCCCCCCCCCCCCCC(=O)OC[C@H](COP(=O)([O-])OCC[N+](C)(C)C)OC(=O)CCCCCCCCCCCCCCCCC` [DSPC, distearoylphosphatidylcholine], for which the “change in physiochemical characteristics after concentration and refrigerated storage” value in series [1] (PEG-less mRNA-LNP 1/structural lipid/cholesterol 27.4/50/22.6, unmodified method (FIGS. 12A, 12B)) is on record as “no change”.

For `CCCCCCC(CSCCCCCC(CCCCCSCC(CCCCCC)OC(=O)CCC1CCCCC1)N(C)CCCCO)OC(=O)CCC1CCCCC1` (stereo not drawn) [Ionizable lipid 16], in series [2], the PDI entry is “high” and the encapsulation efficiency result was “low”. For the same molecule, the “stability, modified method with 1× PBS dilution” value in series [1] (1:2 (v:v) dilution) is “stable particles which did not agglomerate in dialysis”. In series [1], the “physiochemical characteristics, modified method with 25 mM sodium acetate dilution” value is on record as “ideal physiochemical characteristics”; the “behaviour after dialysis and concentration/storage” value is listed as “agglomerate after dialysis or were not stable after concentration/storage”; the “ability to be formulated” value is listed as “undesirable physiochemical characteristics”. For the same molecule, the “stability, modified method with 25 mM sodium acetate dilution” value in series [1] (setting [3]) was “stable PEG-less lcLNP compositions”. Moreover, the “stability, modified method with 25 mM sodium acetate dilution” value in series [1] (setting [4]) is on record as “agglomerated in dialysis”.

For the molecule `CCCCCCCCCC(=O)OC(CCCCC1(CCCCC(CSC2CCCCC2)OC(=O)CCCCCCCCC)OCC(CCN(C)C)O1)CSC1CCCCC1` (stereo not drawn) [Ionizable lipid 12], in series [2], the PDI result is on record as “high” and the encapsulation efficiency entry is “low”. In series [1], the “behaviour after dialysis and concentration/storage” value is given as “agglomerate after dialysis or were not stable after concentration/storage”; the “viability of LNPs, modified method with 25 mM sodium acetate dilution” value is given as “viable PEG-less LNPs”; the “ability to be formulated” value is listed as “undesirable physiochemical characteristics”. Also, the “stability, modified method with 1× PBS dilution” value in series [1] (less than 1× volume of 1×PBS (1:0.25, 1:0.5, undiluted)) is “agglomerated upon dialysis”. Further, the “stability, modified method with 1× PBS dilution” value in series [1] (ratios of at least 1:1 (v:v) addition of 1×PBS) was “stable after concentration and overnight storage”.

`CCCCCCCCC(CCCCCC)C(=O)OCCCCCC(CCCCCSCC(CCCCCC)OC(=O)CCC1CCCCC1)N(C)CCCCO` (stereo not drawn) [Ionizable lipid 17]: in series [2], the PDI result is given as “high” and the encapsulation efficiency entry is listed as “low”. In addition, in series [1], the “behaviour after dialysis and concentration/storage” value is on record as “agglomerate after dialysis or were not stable after concentration/storage”; the “ability to be formulated” value is recorded as “undesirable physiochemical characteristics”.

`CCCCCCCCC(=O)OC(CCCCCC(CCCCCC(CSC1CCCCC1)OC(=O)CCCCCCCC)OC(=O)CCCN(C)C)CSC1CCCCC1` (stereo not drawn) [Ionizable lipid 1]: in series [1], the “viability of LNPs, modified method with 25 mM sodium acetate dilution” value is “viable LNPs”; the “physiochemical properties/stability, modified method with 1× PBS dilution after T-mixing” value is reported as “acceptable physiochemical properties”; the “ability to be formulated” value is “capable of being formulated”.

For `CCCCCCCC/C=C\CCCCCCCC(=O)OC[C@H](COP(=O)(O)OCCN)OC(=O)CCCCCCC/C=C\CCCCCCCC` [DOPE, dioleoylphosphatidylethanolamine], in series [1], the behaviour in dialysis result is listed as “agglomerated in dialysis”.

As to `CCCCCCCCCCCCCC(=O)OC[C@H](COP(=O)([O-])OCC[N+](C)(C)C)OC(=O)CCCCCCCCCCCCC` [DMPC, dimyristoylphosphatidylcholine], in series [1] (12/DMPC/cholesterol 27.4/50/22.6, unmodified method (FIG. 13)), the “physiochemical characteristics after concentration/storage” value was “deteriorated after concentration/storage”. The “physiochemical characteristics / behaviour upon dialysis” value in series [1] (PEG-less LNP with 12 as ionizable lipid, helper lipid screen, unmodified method (FIG. 13)) is “less ideal physiochemical characteristics”.

The values are drawn from patent US12343429B2, “Method of delivery of DNA or RNA cargo unshielded lipid nanoparticles and compositions thereof” (NanoVation Therapeutics Inc., priority 2023, dated 2025).
